Measured values: paper PMC11530593, “Structural mechanism of human HCN1 hyperpolarization-activated channel inhibition by ivabradine” (The Journal of Biological Chemistry, 2024)

Target: T1, WT hHCN1 (Homo sapiens, UniProt O60741)
T1 construct: Full-length WT or mutant human HCN1 were cloned into the pcDNA3.1 vector; expressed in transfected cells; host or cells: HeLa cells, pcDNA3.1 vector, transient lipofection
T1 sequence (O60741 1-890): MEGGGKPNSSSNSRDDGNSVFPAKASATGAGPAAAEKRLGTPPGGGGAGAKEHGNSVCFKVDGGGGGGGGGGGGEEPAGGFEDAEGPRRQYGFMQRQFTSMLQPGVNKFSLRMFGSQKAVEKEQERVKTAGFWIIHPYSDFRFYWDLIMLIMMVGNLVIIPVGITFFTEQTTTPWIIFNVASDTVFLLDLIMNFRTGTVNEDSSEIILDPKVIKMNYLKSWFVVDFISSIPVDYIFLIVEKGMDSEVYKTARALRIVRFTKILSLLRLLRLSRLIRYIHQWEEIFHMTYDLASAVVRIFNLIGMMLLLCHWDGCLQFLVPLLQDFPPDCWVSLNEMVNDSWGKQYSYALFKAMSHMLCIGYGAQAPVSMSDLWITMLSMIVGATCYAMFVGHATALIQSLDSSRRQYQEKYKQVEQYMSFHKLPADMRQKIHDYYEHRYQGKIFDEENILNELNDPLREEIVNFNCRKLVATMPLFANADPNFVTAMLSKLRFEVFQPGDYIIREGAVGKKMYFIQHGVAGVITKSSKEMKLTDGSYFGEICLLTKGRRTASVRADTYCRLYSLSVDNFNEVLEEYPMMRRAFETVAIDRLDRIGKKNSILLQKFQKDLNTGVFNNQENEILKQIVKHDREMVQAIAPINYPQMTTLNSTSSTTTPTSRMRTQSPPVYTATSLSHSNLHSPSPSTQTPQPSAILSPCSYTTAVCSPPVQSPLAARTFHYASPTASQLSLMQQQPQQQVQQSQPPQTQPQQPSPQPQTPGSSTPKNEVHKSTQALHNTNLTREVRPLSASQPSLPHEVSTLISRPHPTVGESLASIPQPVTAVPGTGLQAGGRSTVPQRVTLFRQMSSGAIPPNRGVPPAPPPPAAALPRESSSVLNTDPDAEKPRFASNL
Assay: Whole-cell patch-clamp, Ih inhibition in transfected HeLa cells
Format: cell-based
Details: membrane potential -140 mV, read-out: half-maximal inhibitory concentration (IC50) of Ih inhibition
Protocol: The electrophysiological characteristics of WT hHCN1 were recorded using whole-cell patch-clamp. […] Activation of the HCN1 channel occurred in response to membrane hyperpolarization.
Full-length WT or mutant human HCN1 were cloned into the pcDNA3.1 vector for electrophysiological experiments. HeLa cells (from Thermo Fisher Scientific) cultured in Dulbecco's modified Eagle's medium (from Solarbio Life Science) + 10% fetal bovine serum (from ExCell Bio) at 37 °C were transiently transfected using lipofection, and whole-cell patch-clamp recordings were obtained using the Axon 200B amplifier (Molecular Devices) and clampex software (https://www.moleculardevices.com/products/axon-patch-clamp-system/acquisition-and-analysis-software/pclamp-software-suite), 36 to 48 h posttransfection. The extracellular solution contained 110 mM NaCl, 0.5 mM MgCl2, 1.8 mM CaCl2, 5 mM Hepes, 30 mM KCl, and pH was adjusted to 7.4 with NaOH, while the pipette solution contained 130 mM KCl, 10 mM NaCl, 0.5 mM MgCl2, 1 mM EGTA, 5 mM Hepes, and pH was adjusted to 7.4 with KOH. The recordings were performed at room temperature, voltage-clamp mode, and filtered at 1 kHz. The sampling frequency was 10 kHz, and the series resistance was limited to 5 MΩ. To elicit channel currents, step pulses of 3 s duration ranging from −180 mV to −30 mV were applied, followed by a step to −180 mV lasting 1.25 s. The tail currents evoked by the second step were used to determine the voltage-dependent activation curves and calculate the midpoint of activation potential (V1/2). The half maximal inhibitory concentration (IC50) of drugs was determined by recording currents at a pulse of −140 mV and analyzing current amplitudes at varying drug concentrations. The IC50 value was calculated using the Hill equation.

IC50: 33.4 µM
SMILES: O=C(CCCN1CCC(O)(c2ccc(Cl)cc2)CC1)c1ccc(F)cc1 [haloperidol]
